# Data: ChEMBL document CHEMBL1134821, “Synthesis and anti-HIV activity of oleanolic acid derivatives” (Bioorg Med Chem Lett, 2001)
# Assays:
# [1] = tested on: H9; assay: Antiviral activity against HIV-1(IIIB) infected H9 cell lines.; type: functional, cell-based; conditions: Homo sapiens
# [2] = tested on: H9; assay: Concentration which was toxic to 50% of the mock-infected H9 lymphocyte.; type: functional, cell-based; conditions: Homo sapiens
# [3] = Therapeutic index was determined; conditions: for selectivity ratio: read-out: TI
EC50 [1] [µg/mL],SMILES,IC50 [2] [µg/mL],selectivity ratio [3],TI [3]
1.2,CC1(C)CC[C@]2(C(=O)O)CC[C@]3(C)C(=CC[C@@H]4[C@@]5(C)CC[C@H](OC(=O)CC6(CC(=O)O)CCCC6)C(C)(C)[C@@H]5CC[C@]43C)[C@@H]2C1,4.7,,
0.1,CC(C)(CC(=O)O)CC(=O)O[C@H]1CC[C@]2(C)[C@H]3CC[C@@H]4[C@@H]5CC(C)(C)CC[C@]5(C(=O)O)CC[C@@]4(C)[C@]3(C)CC[C@H]2C1(C)C,8.3,83,
0.1,CC(C)(CC(=O)O)CC(=O)NC[C@]12CCC(C)(C)C[C@H]1C1=CC[C@@H]3[C@@]4(C)CC[C@H](OC(=O)CC(C)(C)CC(=O)O)C(C)(C)[C@@H]4CC[C@@]3(C)[C@]1(C)CC2,21.2,212,
0.5,CC1(C)CC[C@]2(C(=O)O)CC[C@]3(C)[C@H](CC[C@@H]4[C@@]5(C)CC[C@H](O)C(C)(C)[C@@H]5CC[C@]43C)[C@@H]2C1,17.4,34.8,
8.3,CC(CC(=O)O)CC(=O)O[C@H]1CC[C@]2(C)[C@H]3CC=C4[C@@H]5CC(C)(C)CC[C@]5(C(=O)O)CC[C@@]4(C)[C@]3(C)CC[C@H]2C1(C)C (stereo partly specified),27.5,3.3,
0.1,CC1(C)CC[C@]2(CNC(=O)CC3(CC(=O)O)CCCC3)CC[C@]3(C)C(=CC[C@@H]4[C@@]5(C)CC[C@H](OC(=O)CC6(CC(=O)O)CCCC6)C(C)(C)[C@@H]5CC[C@]43C)[C@@H]2C1,19.5,195,
1.5,CC(C)(CC(=O)O)CC(=O)O[C@H]1CC[C@]2(C)[C@H]3CC=C4[C@@H]5CC(C)(C)CC[C@]5(C(=O)O)CC[C@@]4(C)[C@]3(C)CC[C@H]2C1(C)C,14.2,,
0.0039,CC1(C)CC[C@]2(C(=O)O)CC[C@]3(C)[C@H](CC[C@@H]4[C@@]5(C)CC[C@H](OC(=O)CC(C)(C)C(=O)O)C(C)(C)[C@@H]5CC[C@]43C)[C@@H]2C1,13.7,3570,
2.6,CC1(C)CC[C@]2(C(=O)O)CC[C@]3(C)[C@H](CC[C@@H]4[C@@]5(C)CC[C@H](OC(=O)CCCC(=O)O)C(C)(C)[C@@H]5CC[C@]43C)[C@@H]2C1,12.9,4.9,
0.1,CC(CC(=O)O)CC(=O)O[C@H]1CC[C@]2(C)[C@H]3CC[C@@H]4[C@@H]5CC(C)(C)CC[C@]5(C(=O)O)CC[C@@]4(C)[C@]3(C)CC[C@H]2C1(C)C (stereo partly specified),12.3,123,
7.1,CC1(C)CC[C@]2(C(=O)O)CC[C@]3(C)C(=CC[C@@H]4[C@@]5(C)CC[C@H](OC(=O)CCCC(=O)O)C(C)(C)[C@@H]5CC[C@]43C)[C@@H]2C1,14.6,,
0.1,CC1(C)CC[C@]2(C(=O)O)CC[C@]3(C)[C@H](CC[C@@H]4[C@@]5(C)CC[C@H](OC(=O)CC6(CC(=O)O)CCCC6)C(C)(C)[C@@H]5CC[C@]43C)[C@@H]2C1,10.1,101,
1.7,CC1(C)CC[C@]2(C(=O)O)CC[C@]3(C)C(=CC[C@@H]4[C@@]5(C)CC[C@H](O)C(C)(C)[C@@H]5CC[C@]43C)[C@@H]2C1 [OLEANOLIC_ACID],21.8,,12.8
